Reference: US20020055528A1, “Artemisinin analogs having antimalarial, antiproliferative, and antitumor activities and chemoselective methods of making the same” (priority 1999, published 2002)

Experiments:
Type in all cases: cell-based
K-562 = assay: NCI 60 cell line screen (SRB), Leukemia
EKVX = assay: NCI 60 cell line screen (SRB), Non-Small Cell Lung Cancer
HOP-62 = assay: as above
NCI-H322M = assay: as above
NCI-H460 = assay: as above
HCT-15 = assay: NCI 60 cell line screen (SRB), Colon Cancer
SW-620 = assay: NCI 60 cell line screen (SRB), Colon Cancer
HCC-2998 = assay: NCI 60 cell line screen (SRB), Colon Cancer
U251 = assay: NCI 60 cell line screen (SRB), CNS Cancer
MALME-3M = assay: NCI 60 cell line screen (SRB), Melanoma
SK-MEL-5 = assay: NCI 60 cell line screen (SRB), Melanoma
OVCAR-4 = assay: NCI 60 cell line screen (SRB), Ovarian Cancer
SK-OV-3 = assay: NCI 60 cell line screen (SRB), Ovarian Cancer
A498 = assay: NCI 60 cell line screen (SRB), Renal Cancer
ACHN = assay: NCI 60 cell line screen (SRB), Renal Cancer
RXF 393 = assay: NCI 60 cell line screen (SRB), Renal Cancer
SN12C = assay: NCI 60 cell line screen (SRB), Renal Cancer
PC-3 = assay: NCI 60 cell line screen (SRB), Prostate Cancer
DU-145 = assay: NCI 60 cell line screen (SRB), Prostate Cancer
MCF7 = assay: NCI 60 cell line screen (SRB), Breast Cancer
NCI/ADR-RES = assay: NCI 60 cell line screen (SRB), Breast Cancer
MDA-MB231/ATCC = assay: NCI 60 cell line screen (SRB), Breast Cancer; conditions: MDA- (first line of MDA-MB231/ATCC)
[1] = tested on: MB231/ATCC (second line of the wrapped label, with values of its own); assay: NCI 60 cell line screen (SRB), Breast Cancer
HS 578T = assay: NCI 60 cell line screen (SRB), Breast Cancer
MDA-MB-435 = assay: NCI 60 cell line screen (SRB), Breast Cancer
MDA-N = assay: NCI 60 cell line screen (SRB), Breast Cancer

CC1=C(C=Cc2cccc(C=CC3=C(C)C4CCC(C)C5CCC6(C)OOC45C(O3)O6)c2)OC2OC3(C)CCC4C(C)CCC1C24OO3 (stereo not drawn) [VII-h]
Log10TGI (K-562; PG=0): −7.70 log10M | Log10GI50 (K-562; PG=+50): −7.70 log10M | Log10GI50 (K-562; Table IV (LC50, PG=−50)): >−4.00 log10M | Log10TGI (EKVX; PG=0): >−4.00 log10M | Log10GI50 (EKVX; PG=+50): −7.42 log10M | Log10GI50 (EKVX; Table IV (LC50, PG=−50)): >−4.00 log10M | Log10TGI (HOP-62; PG=0): >−4.00 log10M | Log10GI50 (HOP-62; PG=+50): −7.08 log10M | Log10GI50 (HOP-62; Table IV (LC50, PG=−50)): >−4.00 log10M | Log10TGI (NCI-H322M; PG=0): −5.88 log10M | Log10GI50 (NCI-H322M; PG=+50): −7.56 log10M | Log10TGI (NCI-H460; PG=0): >−4.00 log10M | Log10 GI50 or Log10 LC50 (NCI-H460; PG=+50): −5.59 log10M | Log10TGI (HCT-15; PG=0): >−4.00 log10M | log10 GI50 (PG=+50) or LC50 (PG=−50), per row condition (HCT-15; PG=+50): −7.39 log10M | log10 GI50 (PG=+50) or LC50 (PG=−50), per row condition (HCT-15; Table IV (LC50, PG=−50)): >−4.00 log10M | Log10TGI (SW-620; PG=0): >−4.00 log10M | Log10GI50 (SW-620; PG=+50): −7.59 log10M | Log10TGI (HCC-2998; PG=0): >−4.00 log10M | Log10GI50 (HCC-2998; PG=+50): −6.57 log10M | Log10TGI (U251; PG=0): >−4.00 log10M | Log10GI50 (U251; PG=+50): −7.26 log10M | Log10GI50 (U251; Table IV (LC50, PG=−50)): >−4.00 log10M | Log10TGI (MALME-3M; PG=0): −4.17 log10M | Log10GI50 (MALME-3M; PG=+50): −6.94 log10M | Log10GI50 (MALME-3M; Table IV (LC50, PG=−50)): >−4.00 log10M | Log10TGI (SK-MEL-5; PG=0): −6.21 log10M | Log10 GI50 or LC50 (SK-MEL-5; PG=+50): −7.36 log10M | Log10GI50 (OVCAR-4; OVCAR-4, PG=+50): −7.51 log10M | Log10TGI (OVCAR-4; OVCAR−4, PG=0): −6.31 log10M | Log10GI50 (OVCAR-4; Table IV (LC50, PG=−50), OVCAR−4): >−4.00 log10M | Log10TGI (SK-OV-3; PG=0): >−4.00 log10M | Log10GI50 (SK-OV-3; Table IV (LC50, PG=−50)): >−4.00 log10M | Log10TGI (A498; PG=0): >−4.00 log10M | Log10GI50 (A498; PG=+50): −6.29 log10M | Log10GI50 (A498; Table IV (LC50, PG=−50)): >−4.00 log10M | Log10TGI (ACHN; PG=0): >−4.00 log10M | Log10 GI50 or LC50 (see conditions) (ACHN; PG=+50): −6.86 log10M | Log10 GI50 or LC50 (see conditions) (ACHN; Table IV (LC50, PG=−50)): >−4.00 log10M | Log10TGI (RXF 393; PG=0): >−4.00 log10M | Log10GI50 (RXF 393; PG=+50): −6.48 log10M | Log10GI50 (RXF 393; Table IV (LC50, PG=−50)): >−4.00 log10M | Log10TGI (SN12C; SN12C, PG=0): >−4.00 log10M | Log10GI50 (SN12C; SNI2C, PG=+50): −7.31 log10M | Log10GI50 (SN12C; Table IV (LC50, PG=−50), SN12C): −4.00 log10M | Log10TGI (PC-3; PG=0): >−4.00 log10M | Log10 GI50 (PG=+50) or LC50 (PG=−50) (PC-3; PG=+50): −7.70 log10M | Log10 GI50 (PG=+50) or LC50 (PG=−50) (PC-3; Table IV (LC50, PG=−50)): >−4.00 log10M | Log10TGI (DU-145; PG=0): >−4.00 log10M | Log10GI50 (DU-145; PG=+50): −6.16 log10M | Log10GI50 (DU-145; Table IV (LC50, PG=−50)): >−4.00 log10M | Log10TGI (MCF7; PG=0): −4.31 log10M | Log10GI50 (MCF7; PG=+50): −7.33 log10M | Log10GI50 (MCF7; Table IV (LC50, PG=−50)): >−4.00 log10M | Log10TGI (NCI/ADR-RES; PG=0): −4.40 log10M | Log10GI50 (NCI/ADR-RES; PG=+50): −5.76 log10M | Log10GI50 (NCI/ADR-RES; Table IV (LC50, PG=−50)): >−4.00 log10M | Log10TGI (MDA-MB231/ATCC; PG=0): −5.35 log10M | Log10 GI50 or LC50 (per conditions) (MDA-MB231/ATCC; PG=+50): −6.49 log10M | Log10 GI50 or LC50 (per conditions) (MDA-MB231/ATCC; Table IV (LC50, PG=−50)): >−4.00 log10M | Log10TGI ([1]; PG=0): −5.72 log10M | Log10GI50 ([1]; PG=+50): −7.31 log10M | Log10GI50 ([1]; Table IV (LC50, PG=−50)): >−4.00 log10M | Log10TGI (HS 578T; PG=0): >−4.00 log10M | Log10GI50 (HS 578T; PG=+50): −7.41 log10M | Log10GI50 (HS 578T; Table IV (LC50, PG=−50)): >−4.00 log10M | Log10TGI (MDA-MB-435; MDA-MB-435, PG=0): >−4.00 log10M | Log10GI50 (MDA-MB-435; MDA-MB−435, PG=+50): −7.29 log10M | Log10GI50 (MDA-MB-435; Table IV (LC50, PG=−50), MDA-MB-435): >−4.00 log10M | Log10TGI (MDA-N; PG=0): −5.42 log10M | Log10GI50 (MDA-N; PG=+50): −7.33 log10M | Log10GI50 (MDA-N; Table IV (LC50, PG=−50)): >−4.00 log10M
